Marks after values point to notes of the source that are not given here.
Legend:
[1] = system: model of bronchial asthma in guinea pigs; assay: Content of cell elements in the blood in the model of bronchial asthma in guinea pigs; type: in vivo, guinea pig; conditions: Table 6 Experiment No. 2, 6 times, n = 8
Method: (§1) Bronchial asthma in guinea pigs was induced by a standard method [Ricciardolo F L, Nijkamp F, De Rose V, Folkerts G. The guinea pig as an animal model for asthma// Current Drug Targets. 2008 June; 9(6):452-65]. The animals were immunized by one parenteral administration of 0.5 mL of a solution comprising 100 μg/mL ovalbumin (Sigma) and 100 mg/mL aluminium hydroxide. Intact animals received a physiological saline solution in an amount of 0.5 mL.
(§2) On days 29, 30 and 31, hyperactivity of the respiratory airways was provoked by inhalation administration of ovalbumin in ascending concentrations of 0.1, 0.3, and 0.5 mg/mL on days 1, 2, and 3 of the provocation, respectively. The inhalation lasted 5 minutes or until asphyxia symptoms became apparent (fall to one side). On day 32, the animals received a challenging dose of ovalbumin (1 mg/mL) for 5 minutes, while assessing a bronchospastic reaction.
(§3) The studied compounds were administered to the animals once daily every day for 6 or 10 days; the administration was terminated two days before the administration of the challenging dose of antigen.
(§4) The bronchoalveolar lavage (BAL) and cardiac cavity blood were derived from the animals 24 hours after administration of the challenging dose. The BAL was collected under anesthesia by lavaging the lungs with 5 mL of a physiological saline solution heated to 37° C. through the trachea, using a syringe dosing device.
The blood was analyzed with a hemocytometer to determine leykoformula.
(§5) The study comprised 3 experiments, wherein the first one was directed to the evaluation of the effect of claimed compounds 1-6 on the cell composition of the BAL, the second and the third experiments were aimed at evaluating the effect of compounds 1 and 2 on the cell composition of the BAL, the cell composition of the blood, and on the bronchospasm severity.

[2] = system: model of bronchial asthma in guinea pigs; assay: Severity of bronchospasm in the model of bronchial asthma in guinea pigs; type: in vivo, guinea pig; conditions: Experiment No. 2, 6 times, n = 8
Method: as §1, §2, §3
The bronchospastic reaction was assessed by a change in the rate and depth of the respiratory movements and by the asphyxia symptom such as fall to one side. Spirogram was registered by laboratory experimental equipment (ADInstruments, Australia), using a base recording station (PowerLab 8sp.) and software LabCart. The registration was made using airflow sensors for laboratory animals and a spirograph with an integrated amplifier (ADInstruments).
as §5

[3] = system: model of bronchial asthma in guinea pigs; assay: Content of cell elements in BAL in the model of bronchial asthma in guinea pigs; type: in vivo, guinea pig
Method: as §1, §2, §3, §4
The absolute number of cell elements in 1 μL of the lavage (cytosis) was counted in the bronchoalveolar lavage, using the Goryaev camera. Then, the BAL was centrifuged at 200 g for 10 minutes. The residue was used to prepare swabs that were fixed in methanol and stained according to Romanovsky-Giemsa to count endopulmonary cytogram.
as §5

[4] = system: model of sephadex-induced eosinophilic lung inflammation in rats; assay: Content of cell elements in BAL in the model of sephadex-induced eosinophilic lung inflammation in rats; type: in vivo, male Wistar rats; conditions: Table 9, four times, BAL 48 hours after sephadex, n = 7
Method: The model of sephadex-induced eosinophilic lung inflammation in rats was realized by a standard method [Evaldsson C, Rydén I, Uppugunduri S. Isomaltitol exacerbates neutrophilia but reduces eosinophilia: new insights into the sephadex model of lung inflammation//Int Arch Allergy Immunol. 2011; 154(4):286-94]. Sephadex G-200 (Pharmacia, Sweden) was administered one time by inhalation to male Wistar rats at a dose of 5 mg/kg. The studied compounds were administered to the animals by the intragastric route four times: 24 hours and 1 hour before and 24 hours and 45 hours after administration of sephadex. The reference preparation, budesonide, was administered according to the same scheme, by inhalation at a dose of 0.5 mg/kg. Bronchoalveolar lavage was taken 48 hours after the inhalation of sephadex, and the total lymphocyte count and leukocyte formula in the lavage were determined. The number of rats in a group was 7 to 10.

[5] = Table 4, 14 mg/kg, 10 times of administration, n = 9
[6] = Table 5 Experiment No. 2, 0.14 mg/kg, 6 times, n = 8
[7] = Table 5 Experiment No. 2, 1.4 mg/kg, 6 times, n = 8
[8] = Table 5 Experiment No. 2, 14 mg/kg, 6 times, n = 8

## O=C1CCCC(=O)N1CCc1ncc[nH]1 [Compound 2]
[1]; 0.14 mg/kg
  Banded neutrophils in the blood: 0.18 ± 0.04 10^9/L
  Basophils in the blood: 0 ± 0 10^9/L
  Cytosis in the blood: 7.80 ± 0.77*& 10^9/L
  Eosinophils in the blood: 0.09 ± 0.03& 10^9/L
  Lymphocytes in the blood: 3.95 ± 0.54& 10^9/L
  Monocytes in the blood: 0.18 ± 0.06 10^9/L
  Segmented neutrophils in the blood: 3.41 ± 0.41*& 10^9/L
[1]; 1.4 mg/kg
  Banded neutrophils in the blood: 0.21 ± 0.03 10^9/L
  Basophils in the blood: 0 ± 0 10^9/L
  Cytosis in the blood: 7.70 ± 0.40*& 10^9/L
  Eosinophils in the blood: 0.1 ± 0.03& 10^9/L
  Lymphocytes in the blood: 3.68 ± 0.25& 10^9/L
  Monocytes in the blood: 0.18 ± 0.06 10^9/L
  Segmented neutrophils in the blood: 3.53 ± 0.37*& 10^9/L
[1]; 14 mg/kg
  Banded neutrophils in the blood: 0.17 ± 0.04 10^9/L
  Basophils in the blood: 0 ± 0 10^9/L
  Cytosis in the blood: 6.93 ± 0.77& 10^9/L
  Eosinophils in the blood: 0.1 ± 0.04& 10^9/L
  Lymphocytes in the blood: 3.51 ± 0.41& 10^9/L
  Monocytes in the blood: 0.24 ± 0.08 10^9/L
  Segmented neutrophils in the blood: 2.9 ± 0.38& 10^9/L
[2]; 0.14 mg/kg
  The number of animals with moderate bronchospasm (without acute phase, with subacute phase, with breath management): 1
  The number of animals with moderate bronchospasm (without acute phase, with subacute phase, without breath management): 1
  The number of animals with severe bronchospasm (in acute and subacute phase): 2
  The number of animals without bronchospasm: 4
[2]; 1.4 mg/kg
  The number of animals with moderate bronchospasm (without acute phase, with subacute phase, with breath management): 0
  The number of animals with moderate bronchospasm (without acute phase, with subacute phase, without breath management): 3
  The number of animals with severe bronchospasm (in acute and subacute phase): 1
  The number of animals without bronchospasm: 4
[2]; 14 mg/kg
  The number of animals with moderate bronchospasm (without acute phase, with subacute phase, with breath management): 1
  The number of animals with moderate bronchospasm (without acute phase, with subacute phase, without breath management): 0
  The number of animals with severe bronchospasm (in acute and subacute phase): 2
  The number of animals without bronchospasm: 5
[3]; [5]
  Eosinophils in BAL: 1.30 ± 0.29*& 10^9/L
  Lymphocytes in BAL: 1.53 ± 0.50* 10^9/L
  Monocytes in BAL: 0.60 ± 0.14* 10^9/L
  Neutrophils in BAL: 1.05 ± 0.16*& 10^9/L
[3]; [6]
  Cytosis in BAL: 0.55 ± 0.09*& 10^9/L
  Eosinophils in BAL: 0.20 ± 0.03*& 10^9/L
  Lymphocytes in BAL: 0.07 ± 0.02& 10^9/L
  Monocytes in BAL: 0.24 ± 0.06*& 10^9/L
  Neutrophils in BAL: 0.03 ± 0.008*& 10^9/L
[3]; [7]
  Cytosis in BAL: 0.63 ± 0.09*& 10^9/L
  Eosinophils in BAL: 0.18 ± 0.02*& 10^9/L
  Lymphocytes in BAL: 0.06 ± 0.01& 10^9/L
  Monocytes in BAL: 0.29 ± 0.07* 10^9/L
  Neutrophils in BAL: 0.09 ± 0.002 10^9/L
[3]; [8]
  Cytosis in BAL: 0.56 ± 0.008*& 10^9/L
  Eosinophils in BAL: 0.21 ± 0.06*& 10^9/L
  Lymphocytes in BAL: 0.07 ± 0.009& 10^9/L
  Monocytes in BAL: 0.22 ± 0.05*& 10^9/L
  Neutrophils in BAL: 0.07 ± 0.002 10^9/L

## O=C1CCCC(=O)N1CCc1nc2ccccc2s1 [Compound 4, 1-(2-(1,3-benzothiazol-2-yl)ethyl)piperidine-2,6-dione]
[3]; [5]
  Eosinophils in BAL: 1.25 ± 0.34*& 10^9/L
  Lymphocytes in BAL: 0.81 ± 0.11* 10^9/L
  Monocytes in BAL: 0.85 ± 0.19& 10^9/L
  Neutrophils in BAL: 0.43 ± 0.12 10^9/L

## CC1CC(=O)N(CCc2cnc[nH]2)C(=O)C1 [Compound 8]
[4]; 1.8 mg/kg intragastric
  Eosinophils, content of cell elements in 1 μL of BAL: 202 ± 53*& in 1 μL of BAL
  Leukocytes, content of cell elements in 1 μL of BAL: 2796 ± 333 & in 1 μL of BAL
  Lymphocytes, content of cell elements in 1 μL of BAL: 82 ± 44 in 1 μL of BAL
  Macrophages, content of cell elements in 1 μL of BAL: 1860 ± 204& in 1 μL of BAL
  Neutrophils, content of cell elements in 1 μL of BAL: 303 ± 104& in 1 μL of BAL
[4]; 18 mg/kg intragastric
  Eosinophils, content of cell elements in 1 μL of BAL: 318 ± 65*& in 1 μL of BAL
  Leukocytes, content of cell elements in 1 μL of BAL: 4250 ± 576 in 1 μL of BAL
  Lymphocytes, content of cell elements in 1 μL of BAL: 64 ± 45 in 1 μL of BAL
  Macrophages, content of cell elements in 1 μL of BAL: 2050 ± 462& in 1 μL of BAL
  Neutrophils, content of cell elements in 1 μL of BAL: 583 ± 180 in 1 μL of BAL

## Cl.O=C1CCCC(=O)N1CCC1CCCN1 (stereo not shown) [Compound 7]
[4]; 1.8 mg/kg intragastric
  Eosinophils, content of cell elements in 1 μL of BAL: 28 ± 16& in 1 μL of BAL
  Leukocytes, content of cell elements in 1 μL of BAL: 2242 ± 289& in 1 μL of BAL
  Lymphocytes, content of cell elements in 1 μL of BAL: 16 ± 10 in 1 μL of BAL
  Macrophages, content of cell elements in 1 μL of BAL: 913 ± 235& in 1 μL of BAL
  Neutrophils, content of cell elements in 1 μL of BAL: 389 ± 188 in 1 μL of BAL
[4]; 18 mg/kg intragastric
  Eosinophils, content of cell elements in 1 μL of BAL: 164 ± 62 & in 1 μL of BAL
  Leukocytes, content of cell elements in 1 μL of BAL: 1725 ± 345& in 1 μL of BAL
  Lymphocytes, content of cell elements in 1 μL of BAL: 29 ± 17 in 1 μL of BAL
  Macrophages, content of cell elements in 1 μL of BAL: 909 ± 299& in 1 μL of BAL
  Neutrophils, content of cell elements in 1 μL of BAL: 136 ± 50& in 1 μL of BAL

From patent publication US10220029B2, “Pharmaceutical composition comprising glutarimide derivatives and use thereof in the treatment of eosinophilic diseases” (OBSCHESTVO S ORGANICHENNOI OTVETSTVENNOSTIYU …, priority 2013, dated 2019)
